Test results: US20250369032A1 (priority 2023, published 2025)

Molecular target: alkaline phosphatase (Bos taurus, UniProt P19111)
Test: Solvent screen, visual colour change in PNPP
Conditions: 200 μL of the solvent into 2 mL of PNPP; 1-hour
Method: The results were not quantified with the spectrophotometer but the color change was visually observed. […] Two different dosing concentrations were evaluated, 10 μL of test chemical added to 90 μL of alkaline phosphatase reaction reagent and 50 μL of test chemical added to 50 μL of alkaline phosphatase reaction reagent; all aliquoted in 96-well plates.

Sequence of alkaline phosphatase (P19111 20-506): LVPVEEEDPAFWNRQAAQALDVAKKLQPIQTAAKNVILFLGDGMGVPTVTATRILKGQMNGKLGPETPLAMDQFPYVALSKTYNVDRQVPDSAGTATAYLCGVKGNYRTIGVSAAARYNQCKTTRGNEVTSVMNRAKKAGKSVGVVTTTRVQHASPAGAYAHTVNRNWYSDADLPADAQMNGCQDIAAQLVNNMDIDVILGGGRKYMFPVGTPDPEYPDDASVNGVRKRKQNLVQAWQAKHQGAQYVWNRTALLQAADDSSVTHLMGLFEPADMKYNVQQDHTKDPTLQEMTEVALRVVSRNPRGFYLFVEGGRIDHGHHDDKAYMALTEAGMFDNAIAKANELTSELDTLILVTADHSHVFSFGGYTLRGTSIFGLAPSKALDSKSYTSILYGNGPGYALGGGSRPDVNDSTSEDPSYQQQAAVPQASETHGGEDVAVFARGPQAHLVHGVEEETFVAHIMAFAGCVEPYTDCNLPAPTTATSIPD

**Q.** How did the “color change visually observed” value turn out when `CC(C)=O` [acetone] was run?
**A.** The value was “brightest yellow intensity”.

**Q.** Which “color change visually observed” value does the source give for `C[S+](C)[O-]` [dimethyl sulfoxide] here?
**A.** Its value is “no response (clear)”.

**Q.** How did the “color change visually observed” value turn out when `CCO` [ethanol] was run?
**A.** The value was “brightest yellow intensity”.

**Q.** For `CO` [methanol], which “color change visually observed” value is on record?
**A.** Its value is “lesser yellow intensity”.
